The EC50 is the concentration that produces a half-maximal response.

EC50 data for one compound are collected here from article PMC2936488 (ACS chemical neuroscience, 2010).

The test concerns the target T1, M1 muscarinic acetylcholine receptor (M1 mAChR) (Homo sapiens, UniProt P11229).
T1 sequence (P11229 1-460): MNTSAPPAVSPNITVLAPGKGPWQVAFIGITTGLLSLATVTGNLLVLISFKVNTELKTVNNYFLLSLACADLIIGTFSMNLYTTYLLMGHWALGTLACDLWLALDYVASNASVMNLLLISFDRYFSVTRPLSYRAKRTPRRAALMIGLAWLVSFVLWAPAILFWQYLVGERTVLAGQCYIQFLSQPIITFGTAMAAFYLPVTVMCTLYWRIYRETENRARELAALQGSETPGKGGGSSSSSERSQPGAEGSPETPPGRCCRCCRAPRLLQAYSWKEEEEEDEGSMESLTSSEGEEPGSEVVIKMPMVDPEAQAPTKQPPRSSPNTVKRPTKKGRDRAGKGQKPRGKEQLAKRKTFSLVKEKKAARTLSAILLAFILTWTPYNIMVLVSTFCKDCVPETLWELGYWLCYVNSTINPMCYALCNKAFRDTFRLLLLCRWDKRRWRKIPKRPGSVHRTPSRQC
Nature of the test: intracellular calcium mobilization in M1-CHO cells. Type of test: cell-based. (Calcium flux is commonly read through the fluorescence of an indicator in the cells.)

In the case of `CCCCC1CCN(CCCN2C(=O)COc3cc(F)ccc32)CC1` [AC260584], the EC50 turned out to be 146 nM.
